Test results from patent publication US20040176316A1, “Compounds for the normalization of the sleep/wake cycle” (priority 2002, published 2004).
“Also recorded” adds a separate entry of the source. Where two headings read alike, the source gives them in different places.

Tests used:
human subjects = assay: Effects of citicoline on sleep quality and mood, rated by subjects on a 10 point scale (FIG. 1); assay type: in vivo
Description: FIG. 1 is a graph of the effects of citicoline on sleep quality and mood. […] The quality of sleep is improved, and the sleep/wake cycle is normalized after 2-4 weeks of citicoline treatment. This normalization of the sleep/wake cycle may further promote increased wakefulness or reduce fatigue or tiredness during the day. The administration of citicoline will also likely stabilize the homeostatic processes involved in sleep disorders such as insomnia, sleep apneas (central or obstructive), problem sleepiness, restless leg syndrome, periodic limb movements, and narcolepsy. In addition, citicoline may increase cognitive functioning (Alvarez et al. Methods Find Exp Clin Pharmacol 21:633-44, 1999; Fioravanti et al. Cochrane Database Syst. Rev. 4: CD000269, 2000) and may be used to increase cognitive performance in individuals in a sleep-deprived state, e.g., pilots, physicians, students, or others who may experience long periods without sleep.

[1] = cited from earlier work
[2] = cited from earlier work; remark: listed apart in the source
[3] = cited from earlier work; remark: listed apart in the source
cocaine user = assay: Level of activity as a function of time of day in a cocaine user without and with CDP-choline treatment (FIGS. 2A and 2B); assay type: in vivo
Description: FIGS. 2A and 2B are graphs of level of activity as a function of time of day without (A) and with (B) citicoline treatment. A, B, and C refer to use of alcohol, caffeine, and cocaine, respectively. The numbers indicate a craving for cocaine, based on a 10 point scale. Gray dots indicate ingestion of citicoline.
CDP-choline and related compounds are also useful in the treatment of substance abuse disorders, such as alcohol, cocaine, opiate, opioid, nicotine, or tobacco usage or dependence (U.S. Pat. Nos. 5,958,896 and 6,103,703 and U.S. Provisional Application No. 60/424,972, filed Nov. 8, 2002). Since substance abuse disorders may cause a disruption in the quality of sleep or the sleep/wake cycle, the methods of the invention may be used to normalize the sleep/wake cycle or treat sleep disorders in patients with a substance abuse disorder. In addition, a substance abuse disorder and an abnormal sleep/wake cycle or sleep disorder may be treated simultaneously with the methods described herein. FIGS. 2A and 2B show data on the level of activity of a cocaine user for five days without treatment (FIG. 2A) and for 5 days after treatment with CDP-choline (FIG. 2B, monitoring began 4 days after treatment). […] In addition, the subject's use of cocaine (denoted by C) was eliminated with treatment, and the use of alcohol (denoted by A) was reduced.

[4] = after 2-4 weeks of citicoline treatment
[5] = human subjects, measured by the subjects on a 10 point scale, compared to placebo (FIG. 1)

## C[N+](C)(C)CCOP(=O)(O)OP(=O)([O-])OC[C@H]1O[C@@H](n2ccc(N)nc2=O)[C@H](O)[C@@H]1O [CDP-choline, cytidine 5′-diphosphocholine]
Human subjects; [4]
  quality of sleep: improved
  sleep/wake cycle: normalized
Human subjects; [5]
  mood: increases
  quality of sleep: increases
[1]; mammals
  tolerability: well tolerated
[2]; administered either orally or intravenously
  metabolic conversion after administration: rapidly metabolized to cytidine and choline; also recorded: rapidly converted into the two major circulating metabolites, choline and cytidine
[2]; orally administered
  CDP-choline and/or its metabolites absorbed: more than 99%
  excreted in feces: less than 1%
[2]; share of dose
  excretion via lung: 12.9%
  excretion via urine: 2.4%
  rest of the dose metabolized and retained in tissues: 83.9%
[3]; ingestion of large amounts in preclinical studies
  toxicity symptoms: common cholinergic symptoms (salivation, lacrimation, urination, defecation, and vomiting)
[3]; reported cases
  overdoses: no reported cases of overdoses
Cocaine user; 5 days of monitoring that began 4 days after treatment, vs five days without treatment
  sleep/wake cycle: normalized to a diurnal pattern
Cocaine user; after treatment
  cravings for cocaine (10 point scale): reduced in intensity
Cocaine user; after treatment vs without treatment
  level of activity during the day: more active during the day
Cocaine user; with treatment
  use of alcohol: reduced
  use of cocaine: eliminated

## CN(CC(=O)O)C(=N)N [Creatine, creatine]
[1]; humans
  tolerability: well tolerated at relatively high doses

## CC(=O)OC[C@H]1O[C@@H](n2ccc(=O)[nH]c2=O)[C@H](OC(C)=O)[C@@H]1OC(C)=O [triacetyl uridine]
[1]; in vivo
  tolerability: well tolerated

## O=c1ccn([C@@H]2O[C@H](CO)[C@@H](O)[C@H]2O)c(=O)[nH]1 [uridine]
[1]; humans
  tolerability: well tolerated
[1]; mammals
  tolerability: well tolerated
